Assay [1] deals with peripheral blood mononuclear cells (PBMC). Kind of assay: Annexin-V death assay of normal PBMC. It is filed as cell-based. Conditions: Homo sapiens, 24 hours, read-out: EC50, PBMC from normal donors. The method, then: (§1) Cells were stained with fluorescent conjugates of Annexin-V (BioVision) and propidium iodide (PI) and analyzed on a FACSCalibur machine (Becton-Dickinson).
15 ml of blood in heparin treated tubes was obtained from each anonymous CLL patient and processed without freezing. Equal volume of media (RPMI medium, 10% […], supplemented with […] and 10 mg/ml transferrin) was mixed with each sample and CLL cells isolated by centrifugation through Ficoll-PAQUE Plus (Amersham). Cells were washed twice in media and cultured at a density of 2.0×10^6 cells/ml for up to 48 hours. Samples for FIG. 11A were obtained from 24 consecutive patients identified with WBC >50,000/μl. All guidelines and regulations were followed in accordance with IRB protocols #99-224 (Dana-Farber Cancer Institute). Normal PBMC's were obtained from tubing discarded following platelet donation by anonymous normal donors and processed as above, except cultured without insulin and transferrin.
CLL cells have shown sensitivity to ABT-737, so they were selected as a possible initial cancer model of BCL-2 dependence (Oltersdorf et al., 2005). Freshly isolated primary CLL cells were incubated with ABT-737 or negative control enantiomer. After 48 hours, death was assessed using Annexin-V staining. […] Directly targeting the apoptotic machinery might be expected to induce apoptosis rapidly.

The test system of assay [2] is FL5.12 cells. Put plainly: FL5.12 cell survival by Annexin V. It is filed as cell-based, murine. How it is done: as §1
FL5.12 cells were cultured as described previously in Iscove's modified Dulbecco's medium, 10% fetal bovine serum, 1000 ug/ml G418 with or without IL-3 provided by 10% WEHI-3B supplement (supernatant of IL-3 secreting WEHI-3B cells). FL5.12 cells were stably transfected with a vector containing a neomycin resistance construct and either human BCL-2 cDNA (FL5.12-BCL-2) or no insert (wt). 2B4 cells were cultured in RPMI 1640 supplemented with 10% fetal bovine serum, 100 U/ml penicillin, 100 ug/ml streptomycin, 10 uM non-essential amino acids and 8 ul/L betamercaptoethanol. Stably transfected 2B4 cells were isolated after transfection with pLZR-GFP retroviral vector or vector with Flag-Mc1-1 (kind gift from Joe Opferman).
In order to test whether mitochondrial dependence on individual antiapoptotic protein function can be correlated with cellular behavior, cellular models of defined antiapoptotic dependence were investigated. First, it was determined if cellular requirement for BCL-2 for cellular survival correlates with the BCL-2 signature of mitochondrial sensitivity to sensitizer BH3 domains found in FIG. 1B. The pro-lymphocytic murine FL5.12 cell line requires IL-3 to maintain survival. […]

Broadly, the EC50 is the concentration needed to bring the measured effect to its halfway point. On to `CN(C)CC[C@H](CSc1ccccc1)Nc1ccc(S(=O)(=O)NC(=O)c2ccc(N3CCN(Cc4ccccc4-c4ccc(Cl)cc4)CC3)cc2)cc1[N+](=O)[O-]` [ABT-737], for which the EC50 in assay [1] was over 1 µM. Moreover, in assay [2] (IL-3 replete wt FL5.12 cells), the toxicity entry is reported as “non-toxic”. Further, in assay [2] (IL-3 starved FL5.12-BCL-2 cells, 24 hours), the cell death entry is on record as “induced cell death in the IL-3 starved”.
